We go through two compounds from patent publication US20070185122A1, “Use of efletirizine for treating persistent allergic rhinitis” (priority 2003, published 2007).

Experiment [1] has as its system persistent allergic rhinitis. Kind of experiment: clinical study of efletirizine dihydrochloride in persistent allergic rhinitis (T5SS, RQLQ, SF-36), placebo-controlled. The conditions noted are these: patients with persistent allergic rhinitis. It counts as in vivo, adult patients. An excerpt: A study relative to the clinical effect of efletirizine dihydrochloride is planed to establish on the intention to treat (ITT population) whether an approximately 6 month efletirizine treatment can improve the quality of life and clinical symptoms from adult patients suffering from persistent allergic rhinitis, when compared to placebo.
Secondary parameters of efficacy include different durations of treatment, different symptoms, different quality of life questionnaires, the incidence of co-morbidities suspected to be linked to allergic rhinitis and pharmaco-economic variables. The safety of this long-term treatment with efletirizine is also evaluated.
The target population of this study consists of adults aged more than 18 years suffering from persistent allergic rhinitis [WHO Initiative on Allergic Rhinitis and its Impact on Asthma (ARIA), 2000, pages S147-S149]. To be enrolled, the subjects need to have sufficient rhinitis symptoms during the selection period. Excluded are patients with ENT (Ear-Nose-Throat) or eye infection preceding initial visit. […]
The severity of clinical symptoms is rated by the T5SS (sneezing, rhinorrhea, nasal pruritus, ocular pruritus and nasal congestion) evaluated each by a score from 0 to 3 each day. The impact on health related quality of life is measured using the Rhinoconjunctivitis Quality of Life Questionnaire (RQLQ, SF36) (E. JUNIPER and G. H. GUYATT, Development and testing of a new measure of health status for clinical trials in rhinoconjunctivitis, Clinical and Experimental Allergy 1991; 21:77-83; E. JUNIPER, Measuring Health Related Quality of Life in rhinitis, J. Allergy Clin. Immunol. 1997; 99:S742-9). […]
At each of the visits, diary book entries (T5SS, RQLQ, SF-36, indirect cost pharmaco-economic parameters, concomitant medication, outpatient consultations and adverse events) are verified and transferred into the Clinical Record Form and direct cost pharmaco-economic parameters will be recorded. […]
Adverse events are recorded by the patients on diary cards and discussed with the investigator at each visit. […]

The target of the next experiment is histamine H1-receptor (Homo sapiens, UniProt P35367). The experiment in a line: in vitro affinity and selectivity for H1-receptors. It counts as binding.
Chain of histamine H1-receptor (P35367 whole entry, species assumed): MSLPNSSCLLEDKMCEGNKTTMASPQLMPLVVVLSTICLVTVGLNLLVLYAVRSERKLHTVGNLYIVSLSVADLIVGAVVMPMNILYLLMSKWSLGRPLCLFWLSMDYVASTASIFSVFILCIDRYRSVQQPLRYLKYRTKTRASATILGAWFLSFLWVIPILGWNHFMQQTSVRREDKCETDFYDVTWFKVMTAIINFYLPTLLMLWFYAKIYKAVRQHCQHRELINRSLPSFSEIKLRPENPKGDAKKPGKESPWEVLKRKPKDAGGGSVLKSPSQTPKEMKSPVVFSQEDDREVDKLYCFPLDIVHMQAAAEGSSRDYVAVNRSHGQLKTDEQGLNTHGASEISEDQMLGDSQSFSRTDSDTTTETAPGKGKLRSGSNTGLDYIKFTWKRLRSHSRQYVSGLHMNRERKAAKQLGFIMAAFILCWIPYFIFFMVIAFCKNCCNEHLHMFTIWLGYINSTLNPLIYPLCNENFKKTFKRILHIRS

Turning to `Cl.Cl.O=C(O)COCCN1CCN(C(c2ccc(F)cc2)c2ccc(F)cc2)CC1` [efletirizine dihydrochloride], in experiment [1], the “duration of effect on persistent rhinitis” value is reported as “more than 4 weeks”, the “duration of effect on quality of life” value is given as “more than 4 weeks” and the “effect on nasal congestion” value is “has an effect on nasal congestion”.
Regarding `O=C(O)COCCN1CCN(C(c2ccc(F)cc2)c2ccc(F)cc2)CC1` [Efletirizine, 2-[2-[4-[Bis(4-fluorophenyl)methyl]-1-piperazinyl]ethoxy]acetic acid], the “affinity for H1-receptors” value on histamine H1-receptor is recorded as “high affinity”.
